Experimental findings from patent US20200255415A1, “TETRASUBSTITUTED ALKENE COMPOUNDS AND THEIR USE FOR THE TREATMENT OF BREAST CANCER” (Eisai R&D Management Co., Ltd., priority 2016, published 2020) are described below.

In this series the target is T1, human CYP3A4 (Homo sapiens, UniProt P08684).
T1 construct: human CYP3A4 using liver microsomes (0.1 mg/mL); from tissue; host or cells: liver microsomes
T1 sequence (P08684 whole entry): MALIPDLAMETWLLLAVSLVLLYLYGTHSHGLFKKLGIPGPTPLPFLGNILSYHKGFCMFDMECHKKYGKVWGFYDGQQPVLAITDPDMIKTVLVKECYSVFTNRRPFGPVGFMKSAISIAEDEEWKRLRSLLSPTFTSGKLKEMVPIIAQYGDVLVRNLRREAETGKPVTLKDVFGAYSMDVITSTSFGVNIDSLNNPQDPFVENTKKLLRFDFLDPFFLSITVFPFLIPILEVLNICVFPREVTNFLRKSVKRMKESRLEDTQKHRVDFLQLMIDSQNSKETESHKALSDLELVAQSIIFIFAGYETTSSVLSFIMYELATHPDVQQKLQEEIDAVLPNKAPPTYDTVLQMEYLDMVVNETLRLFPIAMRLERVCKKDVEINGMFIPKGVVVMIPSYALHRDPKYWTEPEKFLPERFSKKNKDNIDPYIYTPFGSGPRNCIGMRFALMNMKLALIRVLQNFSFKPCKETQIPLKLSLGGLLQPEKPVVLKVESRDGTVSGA
Description: Time-dependent inhibition assay (IC50 shift), liver microsomes. It counts as in vitro ADME. The conditions noted are these: IC50 shift; human liver microsomes, 30 min pre-incubation, midazolam probe. On the procedure: One of these approaches uses multiple test compound concentrations at a single incubation time, e.g. the “IC50 shift” approach. In an IC50 shift experiment, the IC50 is determined for a CYP marker activity before and after the test compound has been incubated with enzyme and the co-factor nicotinamide adenine dinucleotide phosphate (NADPH) for a set preincubation time (Grimm et al, 2009).
The IC50 shift approach was used to determine whether compounds are time-dependent inhibitors of human CYP3A4 using liver microsomes (0.1 mg/mL). A 30-minute pre-incubation time point was selected, where compounds (9 concentrations, 0 to 30 μmol/L) are incubated at 37° C. in presence and absence of 1 mmol/L NADPH. Following the pre-incubation period, 5 μmol/L midazolam (the probe substrate) was added and formation of hydroxymidazolam was measured by high-performance liquid chromatography-mass spectrometry (LC-MS/MS) analysis following a 5 minute incubation period. Any decrease in the formation of hydroxymidazolam, in peak area ratios to vehicle control, was used to calculate three IC50 values (0 min pre-incubation, 30 min pre-incubation with NADPH, and 30 min pre-incubation without NADPH). […] Assays were performed in duplicate, and mifepristone was used as positive control. In Table 3, “Yes” indicates a TDI shift greater than or equal to 3. “No” indicates a TDI shift greater than or equal to 1 and less than 3.
The IC50 shift approach was also used to determine whether Compound 69 of PCT International Application Publication No. WO/2016/196346 is a time-dependent inhibitor of human CYP3A4 using liver microsomes. Similar to the experimental design described above, a 30-minute pre-incubation time point was selected. Minor variations to the method described above were that Compound 69 of PCT International Application Publication No. WO/2016/196346 was tested at 8 concentrations (0 to 10 μmol/L). Following the pre-incubation period, 3 μmol/L midazolam was added and formation of hydroxymidazolam was measured following a 2 minute incubation period. Since under these experimental conditions, the formation of hydroxymidazolam followed first order kinetics (considered as a linear process), these changes in assay design are not expected to impact the IC50 determinations. In parallel, the IC50 shift assay was also performed with 15.6 μmol/L testosterone (0.05 mg/mL liver microsomes, 10 minute incubation) as second probe substrate. Assays for both probe substrates were performed in triplicate, and mifepristone was used as positive control.
As to `CN(C)C(=O)CCCNCCOc1ccc(/C(=C(/CC(F)(F)F)c2ccccc2)c2ccc3[nH]nc(F)c3c2)cn1` [Compound 2, (Z)-N,N-dimethyl-4-((2-((5-(4,4,4-trifluoro-1-(3-fluoro-1H-indazol-5-yl)-2-phenylbut-1-en-1-yl)pyridin-2-yl)oxy)ethyl)amino)butanamide], the “CYP3A4 TDI” value is recorded as “Yes (“Yes” indicates a TDI shift greater than or equal to 3)”.
The value for `O=C(/C=C/CNCCOc1ccc(/C(=C(/CC(F)(F)F)c2ccccc2)c2ccc3[nH]nc(F)c3c2)cn1)NCCO` [Compound 7, (E)-N-(2-hydroxyethyl)-4-((2-((5-((Z)-4,4,4-trifluoro-1-(3-fluoro-1H-indazol-5-yl)-2-phenylbut-1-en-1-yl)pyridin-2-yl)oxy)ethyl)amino)but-2-enamide] was “No (“No” indicates a TDI shift greater than or equal to 1 and less than 3)”; that for `CNC(=O)/C=C/CNCCOc1ccc(/C(=C(/CC(F)(F)F)c2ccccc2)c2ccc3[nH]ncc3c2)cn1` [Compound 9, (E)-N-methyl-4-((2-((5-((Z)-4,4,4-trifluoro-1-(1H-indazol-5-yl)-2-phenylbut-1-en-1-yl)pyridin-2-yl)oxy)ethyl)amino)but-2-enamide] was “Yes (“Yes” indicates a TDI shift greater than or equal to 3)”; that for `CNC(=O)/C=C/CNCCOc1ccc(/C(=C(/CC(F)(F)F)c2ccccc2)c2ccc3[nH]ncc3c2)cc1` [Compound 10, (E)-N-methyl-4-((2-(4-((E)-4,4,4-trifluoro-1-(1H-indazol-5-yl)-2-phenylbut-1-en-1-yl)phenoxy)ethyl)amino)but-2-enamide] was “Yes (“Yes” indicates a TDI shift greater than or equal to 3)”.
In the case of `Cl.O=C(/C=C/CNCCOc1ccc(/C(=C(/CC(F)(F)F)c2ccccc2)c2ccc3[nH]nc(F)c3c2)cc1)N1CCCC1` [Compound 13, (E)-1-(pyrrolidin-1-yl)-4-((2-(4-((E)-4,4,4-trifluoro-1-(3-fluoro-1H-indazol-5-yl)-2-phenylbut-1-en-1-yl)phenoxy)ethyl)amino)but-2-en-1-one], the “CYP3A4 TDI” value was “No (“No” indicates a TDI shift greater than or equal to 1 and less than 3)”.
The same measure for `Cl.O=C(/C=C/CNCCOc1ccc(/C(=C(/CC(F)(F)F)c2ccccc2)c2ccc3[nH]nc(F)c3c2)cn1)N1CCCC1` [Compound 15]: “No (“No” indicates a TDI shift greater than or equal to 1 and less than 3)”; for `Cl.O=C(/C=C/CNCCOc1ccc(/C(=C(/CC(F)(F)F)c2ccccc2)c2ccc3[nH]ncc3c2)cn1)N1CCCC1` [Compound 16, (E)-1-(pyrrolidin-1-yl)-4-((2-((5-((Z)-4,4,4-trifluoro-1-(1H-indazol-5-yl)-2-phenylbut-1-en-1-yl)pyridin-2-yl)oxy)ethyl)amino)but-2-en-1-one]: “Yes (“Yes” indicates a TDI shift greater than or equal to 3)”.
For the compound `Cl.O=C(/C=C/CNCCOc1ccc(/C(=C(/CC(F)(F)F)c2ccccc2)c2ccc3[nH]nc(F)c3c2)cc1)N1CCOCC1` [Compound 17], the “CYP3A4 TDI” value is “No (“No” indicates a TDI shift greater than or equal to 1 and less than 3)”.
The value for `Cl.[2H]C([2H])([2H])N(C(=O)/C=C/CNCCOc1ccc(/C(=C(/CC(F)(F)F)c2ccccc2)c2ccc3[nH]ncc3c2)cc1)C([2H])([2H])[2H]` [Compound 23] was “Yes (“Yes” indicates a TDI shift greater than or equal to 3)”; that for `CC/C(=C(/c1ccc(OCCNC/C=C/C(=O)NC)cc1)c1ccc2[nH]nc(F)c2c1)c1ccccc1.Cl` [Compound 26, (E)-4-((2-(4-((E)-1-(3-fluoro-1H-indazol-5-yl)-2-phenylbut-1-en-1-yl)phenoxy)ethyl)amino)-N-methylbut-2-enamide] was “No (“No” indicates a TDI shift greater than or equal to 1 and less than 3)”.
The value for `CC/C(=C(/c1ccc(OCCNC/C=C/C(=O)NC)nc1)c1ccc2[nH]nc(F)c2c1)c1ccccc1.Cl` [Compound 27, (E)-4-((2-((5-((Z)-1-(3-fluoro-1H-indazol-5-yl)-2-phenylbut-1-en-1-yl)pyridin-2-yl)oxy)ethyl)amino)-N-methylbut-2-enamide] was “Yes (“Yes” indicates a TDI shift greater than or equal to 3)”; that for `CC/C(=C(/c1ccc(OCCNC/C=C/C(=O)N2CCCC2)cc1)c1ccc2[nH]nc(F)c2c1)c1ccccc1.Cl` [Compound 29, (E)-4-((2-(4-((E)-1-(3-fluoro-1H-indazol-5-yl)-2-phenylbut-1-en-1-yl)phenoxy)ethyl)amino)-1-(pyrrolidin-1-yl)but-2-en-1-one] was “No (“No” indicates a TDI shift greater than or equal to 1 and less than 3)”.
`CC/C(=C(/c1ccc(OCCNC/C=C/C(=O)N2CCCC2)nc1)c1ccc2[nH]nc(F)c2c1)c1ccccc1.Cl` [Compound 30]: the “CYP3A4 TDI” value is “No (“No” indicates a TDI shift greater than or equal to 1 and less than 3)”.
For the compound `CNC(=O)/C=C/CNCCOc1ccc(/C(=C(\c2ccccc2)C2CCC2)c2ccc3[nH]nc(F)c3c2)cc1.Cl` [Compound 31, (E)-4-((2-(4-((E)-2-cyclobutyl-1-(3-fluoro-1H-indazol-5-yl)-2-phenylvinyl)phenoxy)ethyl)amino)-N-methylbut-2-enamide], the “CYP3A4 TDI” value was “Yes (“Yes” indicates a TDI shift greater than or equal to 3)”.
The same measure for `CNC(=O)/C=C/CNCCOc1ccc(/C(=C(\c2ccccc2)C2CCC2)c2ccc3[nH]nc(F)c3c2)cn1.Cl` [Compound 32]: “Yes (“Yes” indicates a TDI shift greater than or equal to 3)”; for `CNC(=O)/C=C/CNCCOc1ccc(/C(=C(\c2ccccc2)C2CCC2)c2ccc3[nH]ncc3c2)cn1.Cl` [Compound 33, (E)-4-((2-((5-((Z)-2-cyclobutyl-1-(1H-indazol-5-yl)-2-phenylvinyl)pyridin-2-yl)oxy)ethyl)amino)-N-methylbut-2-enamide]: “Yes (“Yes” indicates a TDI shift greater than or equal to 3)”.
For the compound `O=C(/C=C/CNCCOc1ccc(/C(=C(\c2ccccc2)C2CCC2)c2ccc3[nH]nc(F)c3c2)cc1)N1CCCC1` [Compound 34], the “CYP3A4 TDI” value was “Yes (“Yes” indicates a TDI shift greater than or equal to 3)”.
The same measure for `Cl.O=C(/C=C/CNCCOc1ccc(/C(=C(\c2ccccc2)C2CCC2)c2ccc3[nH]nc(F)c3c2)cn1)N1CCCC1` [Compound 36, (E)-4-((2-((5-((Z)-2-cyclobutyl-1-(3-fluoro-1H-indazol-5-yl)-2-phenylvinyl)pyridin-2-yl)oxy)ethyl)amino)-1-(pyrrolidin-1-yl)but-2-en-1-one]: “Yes (“Yes” indicates a TDI shift greater than or equal to 3)”; for `O=C(/C=C/CNCCOc1ccc(/C(=C(\c2ccccc2)C2CCC2)c2ccc3[nH]ncc3c2)cn1)N1CCCC1` [Compound 37]: “Yes (“Yes” indicates a TDI shift greater than or equal to 3)”; for `CNC(=O)CCCNCCOc1ccc(/C(=C(/CC(F)(F)F)c2ccccc2)c2ccc3[nH]ncc3c2)cc1.Cl` [Compound 38, (E)-N-methyl-4-((2-(4-(4,4,4-trifluoro-1-(1H-indazol-5-yl)-2-phenylbut-1-en-1-yl)phenoxy)ethyl)amino)butanamide]: “Yes (“Yes” indicates a TDI shift greater than or equal to 3)”.
For the compound `CNC(=O)CCCNCCOc1ccc(/C(=C(/CC(F)(F)F)c2ccccc2)c2ccc3[nH]nc(F)c3c2)cc1.Cl` [Compound 39, (E)-N-methyl-4-((2-(4-(4,4,4-trifluoro-1-(3-fluoro-1H-Indazol-5-yl)-2-phenylbut-1-en-1-yl)phenoxy)ethyl)amino)butanamide], the “CYP3A4 TDI” value was “No (“No” indicates a TDI shift greater than or equal to 1 and less than 3)”.
The same measure for `CNC(=O)CCCNCCOc1ccc(/C(=C(/CC(F)(F)F)c2ccccc2)c2ccc3[nH]ncc3c2)cn1.Cl` [Compound 40, (Z)—N-methyl-4-((2-((5-(4,4,4-trifluoro-1-(1H-indazol-5-yl)-2-phenylbut-1-en-1-yl)pyridin-2-yl)oxy)ethyl)amino)butanamide]: “Yes (“Yes” indicates a TDI shift greater than or equal to 3)”.
Consider `CNC(=O)/C=C/CNCCOc1ccc(/C(=C(/CC(F)(F)F)c2ccccc2)c2ccc3[nH]nc(F)c3c2)c(C)n1.Cl` [Compound 44], for which the “CYP3A4 TDI” value is “Yes (“Yes” indicates a TDI shift greater than or equal to 3)”.
The value for `O=C(/C=C/CNCCOc1ccc(/C(=C(/CC(F)(F)F)c2ccccc2)c2ccc3[nH]nc(F)c3c2)cn1)N1CCCCC1` [Compound 55] was “Yes (“Yes” indicates a TDI shift greater than or equal to 3)”.
